Our source for the residual activity values is ChEMBL document CHEMBL3039007, “Structure-based identification of OATP1B1/3 inhibitors” (Mol Pharmacol, 2013).

In general, residual activity refers to the signal under treatment as a percentage of the control signal.

Residues, ends and D or L forms follow the SMILES beside them.

The target in data set [1] is T1, Solute carrier organic anion transporter family member 1B1 (Homo sapiens, UniProt Q9Y6L6).
T1 sequence (Q9Y6L6 whole entry): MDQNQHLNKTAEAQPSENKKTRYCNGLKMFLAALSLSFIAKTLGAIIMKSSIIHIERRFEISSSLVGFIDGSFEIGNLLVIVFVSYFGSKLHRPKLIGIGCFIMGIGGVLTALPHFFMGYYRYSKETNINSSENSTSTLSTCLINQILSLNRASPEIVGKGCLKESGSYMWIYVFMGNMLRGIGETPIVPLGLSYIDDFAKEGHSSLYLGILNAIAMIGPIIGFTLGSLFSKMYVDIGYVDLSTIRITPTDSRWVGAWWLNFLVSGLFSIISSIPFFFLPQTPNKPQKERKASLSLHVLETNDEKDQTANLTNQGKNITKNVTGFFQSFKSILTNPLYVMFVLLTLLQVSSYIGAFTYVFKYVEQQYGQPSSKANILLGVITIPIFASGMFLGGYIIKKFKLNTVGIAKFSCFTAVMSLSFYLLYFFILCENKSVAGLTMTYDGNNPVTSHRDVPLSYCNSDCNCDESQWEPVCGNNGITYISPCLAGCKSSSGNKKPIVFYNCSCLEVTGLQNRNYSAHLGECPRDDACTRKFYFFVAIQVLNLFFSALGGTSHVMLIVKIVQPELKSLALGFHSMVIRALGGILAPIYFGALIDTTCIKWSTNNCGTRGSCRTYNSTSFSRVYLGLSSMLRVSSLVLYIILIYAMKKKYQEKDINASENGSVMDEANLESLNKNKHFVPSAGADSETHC
To be noted: chinese hamster, cho, 10 µM.

Data set [2] concerns the target T2, Solute carrier organic anion transporter family member 1B3 (Homo sapiens, UniProt Q9NPD5).
T2 sequence (Q9NPD5 whole entry): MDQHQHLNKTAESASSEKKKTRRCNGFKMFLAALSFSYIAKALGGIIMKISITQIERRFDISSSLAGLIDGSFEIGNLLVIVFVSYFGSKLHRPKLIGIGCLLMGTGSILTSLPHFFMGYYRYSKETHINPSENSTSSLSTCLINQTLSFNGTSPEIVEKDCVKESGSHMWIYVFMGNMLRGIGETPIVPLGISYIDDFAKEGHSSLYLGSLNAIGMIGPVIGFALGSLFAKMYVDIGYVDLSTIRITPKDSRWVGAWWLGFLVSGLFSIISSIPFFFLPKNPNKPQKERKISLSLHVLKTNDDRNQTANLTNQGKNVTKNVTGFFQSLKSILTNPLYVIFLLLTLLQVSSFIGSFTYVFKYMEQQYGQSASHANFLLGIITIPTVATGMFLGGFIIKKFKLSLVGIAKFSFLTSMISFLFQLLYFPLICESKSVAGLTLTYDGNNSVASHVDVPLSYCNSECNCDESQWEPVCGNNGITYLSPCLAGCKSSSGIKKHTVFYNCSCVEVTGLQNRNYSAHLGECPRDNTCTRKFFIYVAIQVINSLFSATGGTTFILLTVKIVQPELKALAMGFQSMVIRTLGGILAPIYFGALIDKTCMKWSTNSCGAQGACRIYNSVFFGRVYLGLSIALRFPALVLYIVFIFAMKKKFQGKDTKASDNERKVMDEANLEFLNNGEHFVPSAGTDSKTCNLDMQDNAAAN
To be noted: chinese hamster, cho, 10 µM.

Take `COc1ccc(C(=O)c2ccc(O)cc2)c(O)c1O` [2,3,4'-TRIHYDROXY-4-METHOXYBENZOPHENONE]: the residual activity came to 114.8% in data set [1] and 112.1% in data set [2].
With `Cl.NCCc1cc(O)c(O)cc1O` [OXIDOPAMINE HYDROCHLORIDE], the residual activity in data set [1] is 80.99%; in data set [2], 100.5%.
In the same order, the values of `CCOC(=O)C(=O)C1(C(=O)OCC)Oc2cc(OC)cc(OC)c2C(=O)C1c1ccccc1` (stereo not given) [2-ETHOXYCARBONYL-2-ETHOXYOXALOYLOXYDIHYDROCHRYSIN DIMETHYL ETHER] are 117% and 100.5%.
In the same order, the values of `Cn1c(=O)c2c(ncn2C)n(C)c1=O` [CAFFEINE] are 103.6% and 90.35%.
For `COc1cc2cc3c4cc(OC)c(OC)cc4cc[n+]3c(C)c2cc1OC.[Cl-]` [CORALYNE], the residual activity turned out to be 106.5% in data set [1] and 150.5% in data set [2].
In the same order, the values of `O=C1CCCN1CC#CCN1CCCC1` [OXOTREMORINE] are 95.24% and 82.72%.
In the same order, the values of `Cc1cc(O)cc(C)c1Cl` [CHLOROXYLENOL] are 116.8% and 121.1%.
For the compound `COc1ccccc1-c1cc(=O)c2cccc(OC)c2o1` [8,2'-DIMETHOXYFLAVONE], the residual activity in data set [1] is 107.3%; in data set [2], 108%.
For the compound `CC[C@]12CCCN3CCc4c(n(c5ccccc45)C(=O)C1)[C@@H]32` [VINBURNINE], the residual activity in data set [1] came out at 97.38%; in data set [2], 115.3%.
In the same order, the values of `O=C1NS(=O)(=O)c2ccccc21` [SACCHARIN] are 112.4% and 110.9%.
In the same order, the values of `COc1ccc(-c2coc3cc(O)ccc3c2=O)c(O)c1O` [KOPARIN] are 88.35% and 86.85%.
In the same order, the values of `COc1ccc(C(=O)O)cc1OC` [VERATRIC ACID] are 111.3% and 106.9%.
As to `COc1ccc(-c2cc(=O)c3c(O)cc(O[C@H]4O[C@H](CO[C@@H]5O[C@@H](C)[C@H](O)[C@@H](O)[C@H]5O)[C@@H](O)[C@H](O)[C@H]4O)cc3o2)cc1` [BUDDLEOFLAVONOLOSIDE], the results for the residual activity in data set [1] and in data set [2] were 69.14% and 212.4%, respectively.
In the same order, the values of `CC(C)[C@H](N)C(=O)N[C@@H](Cc1c[nH]c2ccccc12)C(=O)O` [VALYLTRYPTOPHAN] (H-Val-Trp-OH) are 100.2% and 102.8%.
Take `N[C@@H](Cc1c[nH]c2ccccc12)C(=O)O` [TRYPTOPHAN]: the residual activity in data set [1] was determined as 93.19%; in data set [2], 97.09%.
As for `CN(C)CC[C@@H](c1ccc(Cl)cc1)c1ccccn1.O=C(O)/C=C\C(=O)O` [DEXCHLORPHENIRAMINE MALEATE], the residual activity is recorded as 117.7% in data set [1] and 103.6% in data set [2].
In the same order, the values of `C[C@]12CCC(=O)C=C1CC[C@@H]1[C@@H]2[C@@H](O)C[C@@]2(C)[C@H]1CC[C@]2(O)C(=O)CO` [HYDROCORTISONE] are 98.24% and 113.8%.
In the same order, the values of `O=C(Oc1cc(OC(=O)c2ccccc2)c2c(c1)O[C@H](c1ccc(OC(=O)c3ccccc3)c(OC(=O)c3ccccc3)c1)[C@@H](OC(=O)c1ccccc1)C2)c1ccccc1` [CATECHIN PENTABENZOATE] are 113.2% and 118.6%.
Regarding `O=C([O-])P(=O)([O-])[O-].[Na+].[Na+].[Na+]` [FOSCARNET SODIUM], the residual activity in data set [1] stood at 113%; in data set [2], 110.8%.
For `Cl.NCc1ccc(S(N)(=O)=O)cc1` [MAFENIDE HYDROCHLORIDE], the residual activity in data set [1] was 81.65%; in data set [2] it was 85.4%.
In the same order, the values of `COc1ccc2c(c1)OCC(Cc1ccc(OC)c(OC)c1)C2=O` (stereo not given) [DEOXYSAPPANONE B TRIMETHYL ETHER] are 174.5% and 150.7%.
Regarding `CC1=NCCc2c1[nH]c1cc(O)ccc21.Cl` [HARMALOL HYDROCHLORIDE], the figures for the residual activity in data set [1] and in data set [2] were 84.87% and 106.1%, respectively.
In the same order, the values of `CCCCNc1ccc(C(=O)OCCN(C)C)cc1.Cl` [TETRACAINE HYDROCHLORIDE] are 61.91% and 88.3%.
In the same order, the values of `COc1ccc2c(c1)[C@@]1(C)CCC(=O)C[C@@H]1CC2` [5alpha-12-METHOXY-4,4-BISNOR-8,11,13-PODOCARPATRIEN-3-ONE] are 131.2% and 89.3%.
In the case of `CC(=O)O[C@H]1CC[C@@]2(C)[C@@H](CC[C@@H]3[C@@H]2CC(=O)[C@]2(C)[C@@H]4[C@H](C[C@@H]32)O[C@]2(CC[C@@H](C)CO2)[C@H]4C)C1` [HECOGENIN ACETATE], the residual activity in data set [1] turned out to be 103.5%; in data set [2], 102%.
On to `Nc1ccc(C(=O)NCC(=O)O)cc1` [AMINOHIPPURIC ACID], for which the residual activity is reported as 82.43% in data set [1] and 94.72% in data set [2].
In the same order, the values of `NS(=O)(=O)c1cc2c(cc1Cl)N=C(CSCc1ccccc1)NS2(=O)=O` [BENZTHIAZIDE] are 74.12% and 56.86%.
In the same order, the values of `O=C([O-])CF.[Na+]` [SODIUM FLUOROACETATE] are 112.7% and 104.2%.
`C=C1C(=O)O[C@H]2C[C@@H]1C(OC(C)=O)C/C(C)=C/CC/C(C)=C/CC[C@@]2(C)O` (stereo not given in full) [CRASSIN ACETATE]: the residual activity in data set [1] is reported as 60.87%; in data set [2] it was 65.53%.
As to `CC(=O)O[C@H]1CC[C@]2(C)C3=C(CC[C@H]2C1(C)C)[C@]1(C)CC[C@H]([C@H](C)CCC=C(C)C)[C@@]1(C)CC3`, the residual activity in data set [1] amounted to 54.67%; in data set [2], 93.79%.
For the compound `C=CCSCC=C` [DIALLYL SULFIDE], the residual activity in data set [1] turned out to be 82.5%; in data set [2] it was 95.82%.
In the same order, the values of `COc1cc(O)c(C)c(O)c1` [2,6-DIHYDROXY-4-METHOXYTOLUENE] are 108.8% and 91.69%.
In the same order, the values of `OCc1ccccc1O` [SALICYL ALCOHOL] are 92.07% and 117.7%.
In the same order, the values of `O=[N+]([O-])c1cc([As](=O)(O)O)ccc1O` [ROXARSONE] are 82.84% and 90.61%.
As to `C=CC1=C(C(=O)O)N2C(=O)[C@@H](NC(=O)/C(=N\O)c3csc(N)n3)[C@H]2SC1`, the residual activity in data set [1] was determined as 92.13%; in data set [2], 78.64%.
With `CN[C@H]1C[C@@H](N)[C@H](O)[C@@H](O[C@@H]2O[C@H](CO)[C@H](O)[C@H]3O[C@@]4(O[C@H]23)O[C@H]([C@H](N)CO)[C@H](O)[C@H](O)[C@H]4O)[C@@H]1O`, the residual activity worked out at 103.7% in data set [1] and 91.81% in data set [2].
Regarding `Cc1c(O)c(O)cc2c1CC=C1[C@@]2(C)CC[C@@]2(C)[C@@H]3C[C@](C)(C(=O)O)CC[C@]3(C)CC[C@]12C` [DIHYDROCELASTROL], the residual activity in data set [1] is listed as 70.52%; in data set [2] it was 40.35%.
In the same order, the values of `CCN(CC)CCOC(=O)C(c1ccccc1)c1ccccc1.Cl` [ADIPHENINE HYDROCHLORIDE] are 59.48% and 95.82%.
In the same order, the values of `COC(=O)[C@]1(C)CCC[C@]2(C)c3ccc(C(C)C)cc3C(=O)CC12` (stereo not given in full) [7-OXOCALLITRISIC ACID, METHYL ESTER] are 127.8% and 105.6%.
Consider `CCCCCCc1ccc(O)cc1O` [HEXYLRESORCINOL], for which the results for the residual activity in data set [1] and in data set [2] were 115.5% and 84.11%, respectively.
